# ChEMBL document CHEMBL1909046, “DrugMatrix in vitro pharmacology data”
# Experiments:
# [1] = biological target: 5-hydroxytryptamine receptor 6 (Homo sapiens, UniProt P50406); type: cell membranes, HeLa, Membrane; note: in other assays of this panel Not Active means under 50% inhibition at 10 µM
# [2] = biological target: Mitogen-activated protein kinase 14 (Homo sapiens, UniProt Q16539); design: species or system Escherichia coli;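 note: inhibition of p38alpha enzyme activity in a biochemical kinase assay, with myelin basic protein serving as substrate; in other assays of this panel Not Active means under 50% inhibition at 10 µM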
# [3] = biological target: Platelet-activating factor receptor (Homo sapiens, UniProt P25105); type: tissue-based; note: in other assays of this panel Not Active means under 50% inhibition at 10 µM
# Glucocorticoid receptor = biological target: T1, Glucocorticoid receptor (Homo sapiens, UniProt P04150); conditions: hela s3; note: in other assays of this panel Not Active means under 50% inhibition at 10 µM
# T1 sequence (P04150 whole entry): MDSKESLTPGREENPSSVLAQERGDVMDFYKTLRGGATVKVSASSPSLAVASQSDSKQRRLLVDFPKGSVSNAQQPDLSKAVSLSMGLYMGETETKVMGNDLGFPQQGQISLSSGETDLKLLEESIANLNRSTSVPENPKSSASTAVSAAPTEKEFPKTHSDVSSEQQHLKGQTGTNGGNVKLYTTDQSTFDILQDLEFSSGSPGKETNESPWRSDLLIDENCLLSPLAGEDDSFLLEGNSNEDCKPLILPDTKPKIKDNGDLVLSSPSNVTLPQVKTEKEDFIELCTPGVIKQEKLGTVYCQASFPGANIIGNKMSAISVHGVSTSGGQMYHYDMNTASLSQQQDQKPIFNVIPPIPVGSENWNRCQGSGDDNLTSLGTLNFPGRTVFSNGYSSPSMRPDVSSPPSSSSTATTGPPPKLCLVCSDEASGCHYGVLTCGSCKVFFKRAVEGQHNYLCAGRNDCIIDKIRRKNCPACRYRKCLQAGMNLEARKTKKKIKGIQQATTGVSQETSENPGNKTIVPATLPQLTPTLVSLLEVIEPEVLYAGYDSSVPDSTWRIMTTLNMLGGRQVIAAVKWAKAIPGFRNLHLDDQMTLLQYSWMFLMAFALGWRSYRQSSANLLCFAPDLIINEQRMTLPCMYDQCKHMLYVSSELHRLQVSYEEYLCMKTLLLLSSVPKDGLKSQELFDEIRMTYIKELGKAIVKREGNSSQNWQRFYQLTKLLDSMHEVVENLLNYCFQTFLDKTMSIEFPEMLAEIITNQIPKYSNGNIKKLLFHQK
# [4] = DRUGMATRIX: Nicotinic Acetylcholine radioligand binding (ligand: [125I] Epibatidine); type: cell membranes, Membrane; conditions: imr-32; Not Active = under 50% inhibition at 10 µM
# [5] = biological target: T2, Polyunsaturated fatty acid lipoxygenase ALOX15 (Oryctolagus cuniculus, UniProt P12530); test: biochemical; type: tissue-based, Reticulocytes
# T2 sequence (P12530 whole entry): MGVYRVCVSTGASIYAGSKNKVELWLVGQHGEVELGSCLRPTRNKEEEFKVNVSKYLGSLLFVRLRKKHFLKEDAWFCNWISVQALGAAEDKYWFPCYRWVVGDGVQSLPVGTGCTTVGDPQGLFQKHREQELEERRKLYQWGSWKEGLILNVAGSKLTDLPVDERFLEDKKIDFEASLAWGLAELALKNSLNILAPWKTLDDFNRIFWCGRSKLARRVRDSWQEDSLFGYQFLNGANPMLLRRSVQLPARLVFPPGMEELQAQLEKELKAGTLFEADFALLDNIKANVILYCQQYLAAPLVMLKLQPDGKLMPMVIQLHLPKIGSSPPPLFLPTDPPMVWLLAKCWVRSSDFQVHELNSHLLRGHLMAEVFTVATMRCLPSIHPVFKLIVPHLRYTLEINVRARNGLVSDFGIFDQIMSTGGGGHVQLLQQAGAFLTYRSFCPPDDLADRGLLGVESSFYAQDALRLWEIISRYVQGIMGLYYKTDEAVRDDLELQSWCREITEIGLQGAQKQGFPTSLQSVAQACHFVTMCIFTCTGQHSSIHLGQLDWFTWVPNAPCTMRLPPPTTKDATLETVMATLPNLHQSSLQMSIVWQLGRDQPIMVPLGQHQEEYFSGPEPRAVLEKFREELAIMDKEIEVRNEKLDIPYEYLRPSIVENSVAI
# Mu-type opioid receptor = Mu-type opioid receptor (Homo sapiens, UniProt P35372); test: DRUGMATRIX: Opiate mu (OP3, MOP) radioligand binding (ligand: [3H] Diprenorphine); type: cell membranes, CHO-K1, Membrane; conditions: Not Active = under 50% inhibition at 10 µM
# Chain of Mu-type opioid receptor (P35372 whole entry): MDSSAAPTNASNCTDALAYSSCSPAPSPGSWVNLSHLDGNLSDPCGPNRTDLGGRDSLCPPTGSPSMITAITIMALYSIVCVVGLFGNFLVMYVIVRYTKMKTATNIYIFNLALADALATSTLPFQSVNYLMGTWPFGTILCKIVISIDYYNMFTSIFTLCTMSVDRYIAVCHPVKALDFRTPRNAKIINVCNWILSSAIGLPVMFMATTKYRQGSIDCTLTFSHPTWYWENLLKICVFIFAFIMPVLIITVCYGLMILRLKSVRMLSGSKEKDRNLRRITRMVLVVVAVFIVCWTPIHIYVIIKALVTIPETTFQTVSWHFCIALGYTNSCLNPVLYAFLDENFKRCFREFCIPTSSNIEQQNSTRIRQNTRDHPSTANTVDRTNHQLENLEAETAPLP
# Chain of Mitogen-activated protein kinase 14 (Q16539 whole entry): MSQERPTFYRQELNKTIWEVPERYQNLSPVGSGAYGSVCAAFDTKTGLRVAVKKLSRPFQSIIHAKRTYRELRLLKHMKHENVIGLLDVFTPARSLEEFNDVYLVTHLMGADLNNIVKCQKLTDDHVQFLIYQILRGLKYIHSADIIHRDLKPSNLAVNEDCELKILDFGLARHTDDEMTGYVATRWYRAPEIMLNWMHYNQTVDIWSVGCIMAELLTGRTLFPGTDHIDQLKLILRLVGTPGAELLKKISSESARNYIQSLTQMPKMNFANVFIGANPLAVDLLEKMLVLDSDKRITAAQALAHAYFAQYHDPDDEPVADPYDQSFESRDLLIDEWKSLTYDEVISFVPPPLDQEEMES
# Chain of Platelet-activating factor receptor (P25105 whole entry): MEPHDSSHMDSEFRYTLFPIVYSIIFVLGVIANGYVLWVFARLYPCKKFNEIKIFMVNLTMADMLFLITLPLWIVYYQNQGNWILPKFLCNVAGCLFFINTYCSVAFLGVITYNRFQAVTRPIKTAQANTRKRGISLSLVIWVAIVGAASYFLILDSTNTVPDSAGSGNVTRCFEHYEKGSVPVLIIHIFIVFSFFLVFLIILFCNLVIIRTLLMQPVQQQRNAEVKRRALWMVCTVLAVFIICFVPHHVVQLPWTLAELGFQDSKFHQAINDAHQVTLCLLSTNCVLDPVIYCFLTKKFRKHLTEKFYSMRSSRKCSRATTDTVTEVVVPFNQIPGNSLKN
# Chain of 5-hydroxytryptamine receptor 6 (P50406 whole entry): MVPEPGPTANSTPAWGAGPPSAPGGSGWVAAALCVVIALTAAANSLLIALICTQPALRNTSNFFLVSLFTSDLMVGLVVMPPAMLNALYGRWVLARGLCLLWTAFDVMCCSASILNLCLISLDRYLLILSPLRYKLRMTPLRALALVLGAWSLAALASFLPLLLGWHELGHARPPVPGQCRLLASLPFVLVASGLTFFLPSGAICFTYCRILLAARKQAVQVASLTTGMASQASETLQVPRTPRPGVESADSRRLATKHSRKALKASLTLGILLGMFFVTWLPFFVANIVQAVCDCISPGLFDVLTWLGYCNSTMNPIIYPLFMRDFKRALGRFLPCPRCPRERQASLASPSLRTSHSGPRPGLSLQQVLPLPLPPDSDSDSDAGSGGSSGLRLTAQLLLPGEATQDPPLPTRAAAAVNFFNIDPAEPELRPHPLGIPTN
Compound,IC50 ([1]; hela),IC50 [2],IC50 [3],IC50 (Glucocorticoid receptor),IC50 [4],Ki [4],IC50 ([5]; reticulocytes),IC50 (Mu-type opioid receptor; cho-k1),IC50 ([1]; read-out: IC50) [µM],Ki ([1]; read-out: Ki) [µM],IC50 ([5]; read-out: IC50) [µM],Ki ([1]; hela),Ki [2],Ki [3],Ki (Glucocorticoid receptor),Ki ([5]; reticulocytes),IC50 ([2]; read-out: IC50) [µM],Ki (Mu-type opioid receptor) [µM],IC50 (Mu-type opioid receptor; read-out: IC50) [µM]
O=C(O)c1cc(-c2ccc(F)cc2F)ccc1O [DIFLUNISAL],Not Active,Not Active,Not Active,Not Active,Not Active,Not Active,Not Active,Not Active,,,,,,,,,,,
CCn1cc(C(=O)O)c(=O)c2cc(F)c(N3CCNC(C)C3)c(F)c21 (stereo not drawn) [LOMEFLOXACIN],Not Active,Not Active,Not Active,Not Active,Not Active,Not Active,Not Active,Not Active,,,,,,,,,,,
CN(C)C(=O)Oc1cccc([N+](C)(C)C)c1.[Br-] [NEOSTIGMINE BROMIDE],Not Active,Not Active,Not Active,Not Active,Not Active,Not Active,Not Active,Not Active,,,,,,,,,,,
CN1CCCC(CN2c3ccccc3Sc3ccccc32)C1 (stereo not drawn) [MEPAZINE],,Not Active,Not Active,Not Active,Not Active,Not Active,Not Active,Not Active,1.84,0.853,,,,,,,,,
ClC(Cl)(Cl)Cl [CARBON TETRACHLORIDE],Not Active,Not Active,Not Active,,Not Active,Not Active,Not Active,Not Active,,,,,,,,,,,
CCN(C(C)=O)c1cccc(-c2ccnc3c(C#N)cnn23)c1 [ZALEPLON],Not Active,Not Active,Not Active,,Not Active,Not Active,Not Active,Not Active,,,,,,,,,,,
CC(C)NCC(O)c1ccccc1Cl (stereo not drawn) [CLORPRENALINE],Not Active,Not Active,Not Active,,Not Active,Not Active,Not Active,Not Active,,,,,,,,,,,
CC(=O)OCC(=O)[C@@]12OC(C)(C)O[C@@H]1C[C@H]1[C@@H]3C[C@H](F)C4=CC(=O)C=C[C@]4(C)[C@@]3(F)[C@@H](O)C[C@@]12C [FLUOCINONIDE],Not Active,Not Active,Not Active,,Not Active,Not Active,Not Active,Not Active,,,,,,,,,,,
COc1ccccc1N,Not Active,Not Active,Not Active,,Not Active,Not Active,,Not Active,,,2.05,,,,,,,,
C[C@@H]1O[C@@H](O[C@H]2C[C@@H](O)[C@]3(CO)[C@H]4[C@H](O)C[C@]5(C)[C@@H](C6=CC(=O)OC6)CC[C@]5(O)[C@@H]4CC[C@]3(O)C2)[C@H](O)[C@H](O)[C@H]1O [OUABAIN],Not Active,Not Active,Not Active,Not Active,Not Active,Not Active,Not Active,,,,,,,,,,,,
C#C[C@]1(O)CC[C@H]2[C@@H]3CCC4=CC(=O)CC[C@]4(C)[C@H]3CC[C@@]21C [ETHISTERONE],Not Active,Not Active,Not Active,,Not Active,Not Active,Not Active,Not Active,,,,,,,,,,,
CC(=O)OCC(=O)[C@@]1(O)CC[C@H]2[C@@H]3CCC4=CC(=O)CC[C@]4(C)[C@@]3(F)[C@@H](O)C[C@@]21C [FLUDROCORTISONE ACETATE],Not Active,Not Active,Not Active,,Not Active,Not Active,Not Active,Not Active,,,,,,,,,,,
COLISTIN,Not Active,Not Active,Not Active,Not Active,Not Active,Not Active,Not Active,,,,,Not Active,Not Active,Not Active,Not Active,Not Active,,,
C[C@]12C=CC(=O)C=C1CC[C@H]1[C@@H]3C[C@@H](O)[C@](O)(C(=O)CO)[C@@]3(C)C[C@H](O)[C@@]12F [TRIAMCINOLONE],Not Active,Not Active,Not Active,,Not Active,Not Active,Not Active,Not Active,,,,,,,,,,,
CC(O)(P(=O)(O)O)P(=O)(O)O [ETIDRONIC ACID],Not Active,Not Active,Not Active,,Not Active,Not Active,Not Active,Not Active,,,,,,,,,,,
CCOC(=O)c1ncn2c1CN(C)C(=O)c1cc(F)ccc1-2 [FLUMAZENIL],Not Active,Not Active,Not Active,,Not Active,Not Active,Not Active,Not Active,,,,,,,,,,,
COBALTOUS CHLORIDE,Not Active,Not Active,Not Active,Not Active,Not Active,Not Active,Not Active,,,,,Not Active,Not Active,Not Active,Not Active,Not Active,,,
CCN(CC)CCNC(=O)c1ccc(N)cc1 [PROCAINAMIDE],Not Active,Not Active,Not Active,,Not Active,Not Active,Not Active,Not Active,,,,,,,,,,,
Cc1c(O)cccc1C(=O)N[C@@H](CSc1ccccc1)[C@H](O)CN1C[C@H]2CCCC[C@H]2C[C@H]1C(=O)NC(C)(C)C,Not Active,,Not Active,,Not Active,Not Active,,,,,13.8,,,,,,18.2,5.86,14.4
C[C@H]1COc2c(N3CCN(C)CC3)c(F)cc3c(=O)c(C(=O)O)cn1c23.C[C@H]1COc2c(N3CCN(C)CC3)c(F)cc3c(=O)c(C(=O)O)cn1c23.O [LEVOFLOXACIN],Not Active,Not Active,Not Active,,Not Active,Not Active,Not Active,Not Active,,,,,,,,,,,
CCCCC1=NC2(CCCC2)C(=O)N1Cc1ccc(-c2ccccc2-c2nnn[nH]2)cc1 [IRBESARTAN],Not Active,Not Active,Not Active,,Not Active,Not Active,Not Active,Not Active,,,,,,,,,,,
Cc1ccc(C)c(OCCCC(C)(C)C(=O)O)c1 [GEMFIBROZIL],Not Active,Not Active,Not Active,,Not Active,Not Active,Not Active,Not Active,,,,,,,,,,,
C[C@]12CC[C@@H]3c4ccc(O)cc4CC[C@H]3[C@@H]1C[C@@H](O)[C@@H]2O [ESTRIOL],Not Active,Not Active,Not Active,,Not Active,Not Active,,Not Active,,,8.64,,,,,,,,
C[C@]12CC[C@H]3[C@@H](CCC4=CC(=O)CC[C@@H]43)[C@@H]1CC[C@@H]2O [NANDROLONE],Not Active,Not Active,Not Active,Not Active,Not Active,Not Active,Not Active,,,,,,,,,,,,
CS(=O)(=O)Nc1ccc([N+](=O)[O-])cc1Oc1ccccc1 [NIMESULIDE],Not Active,Not Active,Not Active,,Not Active,Not Active,Not Active,Not Active,,,,,,,,,,,
NC(=O)N1c2ccccc2CC(=O)c2ccccc21 [OXCARBAZEPINE],Not Active,Not Active,Not Active,,Not Active,Not Active,Not Active,Not Active,,,,,,,,,,,
